# Assays:
# [1] = Solubility in toluene (hot toluene trituration); format: physicochemical; details: crude solids digested in hot toluene for 1 hour
# Procedure: The crude solids (1 g) were digested in hot toluene (15 mL) for 1 hour. The slurry was cooled to room temperature and the solids were isolated by filtration. The solids were dried at 80° C., under vacuum, to afford 0.86 g (86%). […] Based on this observation, in the following experiment toluene was further tried as an anti-solvent.
# [2] = in vivo; with temozolomide, doxorubicin, docetaxel; cited from earlier work
# [3] = Solubility in water (water/2-propanol recrystallization); format: physicochemical; details: crude solids, ambient temperature
# Procedure: The crude solids (0.5 g) were dissolved in water (1 mL) and 2-propanol (5 mL) was charged. The resulting slurry was stirred at room temperature for 1 hour, and then isolated by filtration. The solids were washed with 2-propanol (to cover the solids) and air dried to afford 0.1 g (20% recovery yield).
# PP2A = details: used alone (Lu et al. 2009a); cited from earlier work
smiles,measurement,setting,value
"CN1CCN(C(=O)C2C(C(=O)O)[C@H]3CC[C@@H]2O3)CC1 (stereo in doubt) [LB100, 3-(4-methylpiperazine-1-carbonyl)-7-oxabicyclo[2.2.1] heptane-2-carboxylic acid]",solubility in toluene,[1],low solubility of the material in toluene
same,potentiation of anti-tumor activity of standard cytotoxic anti-cancer drugs,[2],significantly potentiates in vivo
same,toxicity in combination with cytotoxic anti-cancer drugs,[2],without observable increase in toxicity
same,solubility in water,[3],high solubility in water
same,anti-cancer activity,PP2A,has anti-cancer activity when used alone

# From patent US9994584B2, “Process of synthesizing 3-(4-methylpiperazine-1-carbonyl)-7-oxabicyclo[2.2.1] heptane-2-carboxylic acid” (LIXTE BIOTECHNOLOGY, INC., priority 2014, dated 2018)
